Measurements reported in patent EP0340198B1, “Immunoassay for the detection of alpha-haloacetamides” (priority 1988, dated 1989).

Tests used:
[1] = tested on: antibodies isolated from the serum of the first bleed of the rabbit; assay: affinity column binding of 14C-labeled analytes from aqueous solution; conditions: for binding by the affinity column: 14C-labeled analogs, test of non-specific binding
Protocol: Affinity Chromatography. The preparation of affinity columns using rabbit antisera was as follows: The rabbit IgG's were purified by passing 5 mL of the antiserum through a column containing 5 mL of the swelled protein A-agarose gel. By monitoring the absorbance at 280 nm in the column effluent, the non-bound proteins were removed by washing with PBS, and the IgG's were then eluted with acetic acid at pH 2.3 (0.58% acetic acid and 0.15 M NaCl). The fractions containing the IgG's were combined and neutralized; based on the UV absorbance at 280 nm (absorbance/1.4 = mg/mL protein), approximately 33 mg of IgG were isolated from 5 mL of serum, which was then lyophilized and stored at -20°C. The reusable protein A-agarose column was stored in PBS containing 0.02% sodium azide at 4°C.
The protein A-purified IgG was immobilized onto Affigel-10 affinity support. Affigel-10 (5 mL) was washed 3 times with isopropyl alcohol and 3 times with cold distilled water in a Buchner funnel. The gel was then added to a solution of IgG (3 mL in 0.1 M HEPES buffer, pH 7.5) at 4°C. Following 4 hrs of stirring, the gel was precipitated by gentle centrifugation and washed with HEPES buffer (3 x 3 mL). The remaining active sites on the gel were blocked by resuspending the gel in water (2 mL) and adding ethanolamine HCl (0.5 mL, 1M), and stirring the mixture at 22°C for 1 hr. The affinity column was useful in adsorbing alachlor and other analytes from aqueous solutions. After binding the alachlor, the column was washed with water (2 mL/min) to remove unbound material and alachlor was eluted with 75% aqueous methanol.
Using the antibodies isolated from the serum of the first bleed of the rabbit, an affinity column for alachlor was constructed to study its utility as an isolation and purification tool. The IgG's in the serum of the rabbit immunized with the alachlor-IgG conjugate were purified with a protein A-agarose column. The purified IgG was then immobilized onto the Affigel-10 support. Alachlor (¹⁴C-labeled) in aqueous solution was passed through the column with a flow rate of 2 mL/min; the column was washed with water and eluted with 75% aqueous methanol. The radioactivity in the wash and eluent were determined by liquid scintillation counting. […] The capacity of the column was less than 1 µg, and once this level was exceeded, alachlor no longer bound to the column. The recovery of applied radioactivity generally ranged from 80% to 100%. In a second experiment, alachlor (0.5 µg) was dissolved into increasing volumes of water ranging from 1 mL to 100 mL.
To eliminate the possibility of non-specific binding of alachlor to the affinity column, other ¹⁴C-labeled analogs were also studied. These included acetanilide herbicides butachlor, acetochlor, metolachlor, and propachlor and the previously mentioned alachlor metabolites mercapturate and its methyl ester. The affinity column bound butachlor and acetochlor, but not metolachlor, propachlor, or mercapturate.

[2] = tested on: antibodies toward butachlor; assay: inhibition ELISA for butachlor; assay type: binding, rabbits; conditions: standard solutions at 10 and 50 ppb in DI water
Text: The generation of antibodies toward butachlor (2-chloro-2′,6′-diethyl-N-(butoxymethyl)acetanilide), amidochlor (2-chloro-2′,6′-diethyl-N-acetamidomethyl acetanilide), and metolachlor (2-chloro-2′-ethyl-6′-methyl-N-(2-methoxy-1-methylethyl)acetanilide) were accomplished following identical procedures as those described for alachlor. The individual 14C-labeled chloroacetanilide was covalently bound to HSA (human serum albumin) with AHT, and to sheep IgG with AMSA.
The hapten-IgG conjugates were used to immunize rabbits. The corresponding hapten-BSA conjugates were then utilized in checkerboard assays to determine the presence of desired antibodies in the antisera. An inhibition ELISA for butachlor was set up with antiserum, butachlor-HSA screening antigen, and butachlor. Similar assays were also set up for amidochlor and metolachlor.
The sensitivity of the inhibition ELISA for butachlor, amidochlor, and metolachlor was tested with respective standards prepared in DI water. Using the best antiserum, the butachlor ELISA produced an IC50 of 8 ppb.
The specificity of the ELISA for butachlor, amidochlor, and metolachlor were tested using standard solutions of alachlor, acetochlor, butachlor, amidochlor, metolachlor, and propachlor at concentrations of 10 and 50 ppb in DI water. At these concentrations, the ELISA assay for butachlor, amidochlor, and metolachlor was each inhibited only by the respective free hapten, and not by any of the other chloroacetanilides.

Compound	binding by the affinity column [1]	inhibition of the ELISA assay for butachlor [2]	extraction of alachlor by the column ([1]; 0.5 µg per 1 mL to 0.5 µ/50 mL (0.5 ppm to 10 ppb) in water)	efficiency of alachlor extraction by the column reduced by ([1]; 0.5 µg/100 mL (5 ppb) in water)	capacity of the column ([1]; alachlor)
CCOCN(C(=O)CCl)c1c(C)cccc1CC [Acetochlor, acetochlor]	bound	not	–	–	–
CCc1cccc(CC)c1N(COC)C(=O)CCl [Alachlor, α-chloro-2′,6′-diethyl-N-methoxymethyl acetanilide]	–	not	effectively extracted	50%	less than 1 µg
CC(C)N(C(=O)CCl)c1ccccc1 [Propachlor, propachlor]	not	not	–	–	–
